Test results from US6440451B1, “Use of crataegus formulations for prophylaxis and treatment of neoplastic diseases” (Nativia Health Products GmbH, priority 1998, dated 2002).

Key:
[1] = test system: SAOS-2; assay: MTT assay, SAOS-2 osteosarcoma cells; assay type: cell-based, human; conditions: 72 hours
Description: (§1) In the context of the present invention, five human tumour cell lines (four carcinoma cell lines, one sarcoma cell line) and one animal carcinoma cell line (cf. tab. 2) were investigated as examples. All the cell lines were kept in permanent cell culture in cell culture bottles with 75 cm^2 base area. They were subjected to passage once a week, and the medium was changed twice a week. At the start of the experiment (day 0), the cells were sown in cell culture plates with 96 depressions (96 well plates) in 100 μl medium per well (=0.32 cm^2) in each case, with the density shown in table 2. On days 1 and 4, the medium of all the cells was changed, and after the change of medium on day 4, incubation with the active substances (Crataegus formulations, Gentiana, superoxide dismutase, 5-fluorouracil and methotrexate; see below) or the solvents as controls started immediately. The effects of the active substances were measured on day 7 (that is to say after incubation for 72 hours) with two different methods, the so-called MTT assay and the SRB assay (see tab. 2).
(§2) MTT assay: The MTT assay (T. Mossman, J. Immunoll. Methods 65 (1983) 55-63) is based on measurement of the metabolic activity of living cells. The substance 3-(4,5-dimethylthiazol-2-yl)-2,5-diphenyltetrazolium bromide (MTT), which the cells reduce intracellularly to the water-insoluble dyestuff formazan, is made available to the cells. This reduction takes place only in metabolically active cells, so that this assay detects exclusively living cells. At the measurement time, in each case 100 μl MTT solution (4 mg/ml PBS, phosphate buffered saline) are added to the cells in 100 μl medium. Incubation for two hours at 37° C. then takes place. Thereafter, the medium is sucked off, so that the dyed living cells adhering to the base of the culture flask remain. These and the dyestuff are dissolved with 100 μl DMSO (dimethylsulphoxide) in the course of 5 minutes, with vigorous shaking. The extinction is then determined photometrically at 570 nm. Its linearity in the range used here, and also its correlation to the number of living cells (counted under the microscope) were detected in preliminary experiments. […] For the evaluation, ΔE was determined by subtraction of the extinction in the controls with PBS from the measurement values with MTT.
(§3) The data shown in table 3 are the means of three individual measurements. ΔE measured under the action of the various test substances has additionally been shown in percent of ΔE of the particular solvent controls. […] At the time of addition of the test substance (day 4), the cells had already reached approx. 50% of the density, and therefore also 50% of the ΔE to be measured.

[2] = test system: Caki-1; assay: MTT assay, Caki-1 kidney carcinoma cells; assay type: cell-based, human; conditions: 72 hours
Description: as §1, §2, §3

[3] = test system: SKMEL-2; assay: SRB assay, SK-MEL-2 malignant melanoma cells; assay type: cell-based, human; conditions: for % control / dE mean: SKMEL-2, 72 hours
Description: as §1
(§4) SRB assay: The SRB assay (P. Skehan et al., J. Natl. Cancer Inst. 82 (1990) 1107-1112) is based on binding of the dyestuff sulphorhodamine B (SRB) to basic proteins. The principle specifies fixing, with the aid of trichloroacetic acid, the tumour cells adhering to the culture vessel base and thereafter dyeing their protein. This dyeing is then also determined photometrically. Non-living cells are distinguished in that they first detach themselves from the cell culture base and then dissolve in the culture medium. This method therefore also measures only the living cells in a cell culture. The cells growing in 100 μl medium are first fixed with 25 μl 50% cold trichloroacetic acid at 4° C. After incubation for one hour at 4° C., all the non-fixed constituents are removed and those which remain are rinsed five times with water. After drying in air, 200 μl 0.4% sulphorhodamine B solution in 1% acetic acid or, in the photometric controls, only acetic acid,. are added. After incubation for 30 minutes at room temperature, the dyestuff solution is poured out and the culture is rinsed four times with 1% acetic acid. After removal of the rinsing solution and drying, the dyestuff adhering to the basic proteins is dissolved in 100 μl 10 mM tris-base (tris(hydroxymethyl)aminomethane) in the course of 5 minutes. The extinction was measured at 570 nm or, if the OD (optical density) lay outside the linear range, at 492 nm (for CMT-93 cells). For the evalution, ΔE was determined by subtraction of the extinction in the controls with acetic acid from the measurement values with SRB.
The data shown in table 3 are the means of three individual measurements. ΔE measured under the action of the various test substances has additionally been shown in percent of ΔE of the particular solvent controls. The control cells, which received no test substances (Crataegus formulations) but only medium or solvent, reached 100% of their density (number) as defined at the measurement time (day 7). At the time of addition of the test substance (day 4), the cells had already reached approx. 50% of the density, and therefore also 50% of the ΔE to be measured.

[4] = test system: U373MG; assay: SRB assay, U373MG glioblastoma cells; assay type: cell-based, human
Description: In the context of the present invention, five human tumour cell lines (four carcinoma cell lines, one sarcoma cell line) and one animal carcinoma cell line (cf. tab. 2) were investigated as examples. All the cell lines were kept in permanent cell culture in cell culture bottles with 75 cm^2 base area. They were subjected to passage once a week, and the medium was changed twice a week. At the start of the experiment (day 0), the cells were sown in cell culture plates with 96 depressions (96 well plates) in 100 μl medium per well (=0.32 cm^2) in each case, with the density shown in table 2. […] [table] SRB assay: The SRB assay (P. Skehan et al., J. Natl. Cancer Inst. 82 (1990) 1107-1112) is based on binding of the dyestuff sulphorhodamine B (SRB) to basic proteins. The principle specifies fixing, with the aid of trichloroacetic acid, the tumour cells adhering to the culture vessel base and thereafter dyeing their protein. This dyeing is then also determined photometrically. Non-living cells are distinguished in that they first detach themselves from the cell culture base and then dissolve in the culture medium. This method therefore also measures only the living cells in a cell culture. The cells growing in 100 μl medium are first fixed with 25 μl 50% cold trichloroacetic acid at 4° C. After incubation for one hour at 4° C., all the non-fixed constituents are removed and those which remain are rinsed five times with water. After drying in air, 200 μl 0.4% sulphorhodamine B solution in 1% acetic acid or, in the photometric controls, only acetic acid,. are added. […] For the evalution, ΔE was determined by subtraction of the extinction in the controls with acetic acid from the measurement values with SRB. The data shown in table 3 are the means of three individual measurements. ΔE measured under the action of the various test substances has additionally been shown in percent of ΔE of the particular solvent controls. […] At the time of addition of the test substance (day 4), the cells had already reached approx. 50% of the density, and therefore also 50% of the ΔE to be measured.

[5] = test system: human fibroblasts, keratinocytes and endothelial cells; conditions: Fotsis et al., Cancer Research 57 (1997); cited from earlier work
[6] = test system: human neuroblastoma and breast carcinoma cells; conditions: Fotsis et al., Cancer Research 57 (1997); cited from earlier work
[7] = test system: tumour cell lines investigated; assay: MTT/SRB assays, statements on all tumour cell lines investigated; assay type: cell-based; conditions: table 3
Description: as §1, with “On days 1 and 4, the medium of all the cells was changed, and after the change of medium on day 4, incubation with the active substances (Crataegus formulations, Gentiana, superoxide dismutase, 5-fluorouracil and methotrexate; see below) or the solvents as controls started immediately.” left out
MTT assay: The MTT assay (T. Mossman, J. Immunoll. Methods 65 (1983) 55-63) is based on measurement of the metabolic activity of living cells. […] The extinction is then determined photometrically at 570 nm. Its linearity in the range used here, and also its correlation to the number of living cells (counted under the microscope) were detected in preliminary experiments. […] For the evaluation, ΔE was determined by subtraction of the extinction in the controls with PBS from the measurement values with MTT. […]

[8] = test system: HT-29; assay: MTT assay, HT-29 colon carcinoma cells; assay type: cell-based, human; conditions: 72 hours
Description: as §1, §2, §3

[9] = test system: CMT-93; assay: SRB assay, CMT-93 rectum carcinoma cells; assay type: cell-based, mouse; conditions: 72 hours
Description: as §1
as §4, with “After incubation for 30 minutes at room temperature, the dyestuff solution is poured out and the culture is rinsed four times with 1% acetic acid. After removal of the rinsing solution and drying, the dyestuff adhering to the basic proteins is dissolved in 100 μl 10 mM tris-base (tris(hydroxymethyl)aminomethane) in the course of 5 minutes.” left out
as §3

[10] = U373MG, medium, 45 μg/ml, 72 hours
[11] = solvent H2O 0.10% final conc, 1 μg/ml

CN(Cc1cnc2nc(N)nc(N)c2n1)c1ccc(C(=O)N[C@@H](CCC(=O)O)C(=O)O)cc1 [Methotrexate]
% control ([1]; medium, 45 μg/ml): 41%
dE mean ([1]; medium, 45 μg/ml): 0.259
% control ([2]; medium, 45 μg/ml): 47%
dE mean ([2]; medium, 45 μg/ml): 0.679
% control ([3]; medium, 45 μg/ml): 119%
dE mean ([3]; medium, 45 μg/ml): 2.429
cytostatic/cytotoxic action on SKMEL-2 cells, in words ([3]; table 3): resistance
% control [4, 10]: 135%
dE mean [4, 10]: 1.449
cytostatic/cytotoxic action on U373MG cells, in words ([4]; table 3): resistance

O=c1c(O)c(-c2ccc(O)c(O)c2)oc2cc(O)cc(O)c12 [quercetin]
effect on proliferation of human fibroblasts, keratinocytes and endothelial cells [5]: inhibits the proliferation
effect on proliferation of human neuroblastoma and breast carcinoma cells [6]: inhibiting effect

Superoxide dismutase: Superoxide dismutase from bovine erythrocytes, superoxide scavenger comparison
% control [1, 11]: 98%
dE mean [1, 11]: 0.564
% control [2, 11]: 97%
dE mean [2, 11]: 1.442
cytostatic/cytotoxic action on the cell lines investigated, in words [7]: no cytostatic or cytotoxic effects
% control [3, 11]: 94%
dE mean [3, 11]: 1.340
% control [8, 11]: 90%
dE mean [8, 11]: 1.725
% control [9, 11]: 92%
dE mean [9, 11]: 0.326

O=c1cc(-c2ccc(O)c(O)c2)oc2cc(O[C@@H]3O[C@H](CO)[C@@H](O)[C@H](O)[C@H]3O)cc(O)c12 [luteolin-7-glucoside]
effect on proliferation of human fibroblasts, keratinocytes and endothelial cells [5]: inhibits the proliferation
effect on proliferation of human neuroblastoma and breast carcinoma cells [6]: inhibiting effect

O=c1[nH]cc(F)c(=O)[nH]1 [5-Fluorouracil]
% control ([8]; medium, 25 μg/ml): 53%
dE mean ([8]; medium, 25 μg/ml): 0.973
% control ([9]; medium, 25 μg/ml): 63%
dE mean ([9]; medium, 25 μg/ml): 0.191
